27 molecules from patent US10040759B2, “Substituted azetidinyl compounds as GlyT1 inhibitors” (DART NEUROSCIENCE (CAYMAN) LTD., priority 2014, dated 2018) can be followed below.

For this assay, the target named is T1, GlyT1 (Homo sapiens, UniProt P48067).
T1 construct: expressed in transfected cells
T1 sequence (P48067 1-706): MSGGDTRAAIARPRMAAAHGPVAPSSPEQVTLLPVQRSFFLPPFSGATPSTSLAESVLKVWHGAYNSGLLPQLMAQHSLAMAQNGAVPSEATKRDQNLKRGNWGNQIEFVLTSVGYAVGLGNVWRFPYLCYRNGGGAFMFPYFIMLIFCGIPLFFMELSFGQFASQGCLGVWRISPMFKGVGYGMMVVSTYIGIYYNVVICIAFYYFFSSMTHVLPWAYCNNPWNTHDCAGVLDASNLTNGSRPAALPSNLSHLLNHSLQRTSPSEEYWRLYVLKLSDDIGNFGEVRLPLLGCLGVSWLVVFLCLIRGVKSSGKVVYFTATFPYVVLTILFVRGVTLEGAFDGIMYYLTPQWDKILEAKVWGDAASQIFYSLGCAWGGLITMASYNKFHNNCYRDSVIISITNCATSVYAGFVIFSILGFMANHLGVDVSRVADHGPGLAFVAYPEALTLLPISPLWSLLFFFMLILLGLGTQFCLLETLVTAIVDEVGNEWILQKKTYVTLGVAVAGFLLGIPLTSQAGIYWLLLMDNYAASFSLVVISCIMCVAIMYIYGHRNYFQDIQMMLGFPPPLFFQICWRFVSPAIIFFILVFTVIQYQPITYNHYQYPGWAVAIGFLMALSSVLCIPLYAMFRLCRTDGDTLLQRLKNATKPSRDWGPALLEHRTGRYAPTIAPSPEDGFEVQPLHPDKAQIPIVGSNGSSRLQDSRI
The assay can be described thus: Glycine Transporter 1 (GlyT1) uptake assay, scintillation proximity assay of [14C]-glycine uptake. The format is cell-based. The note with it: [14C]-glycine uptake; read-out: GlyT1 (pIC50) (converted). The method, then: Glycine Transporter 1 (GlyT1) Uptake Assay
HEK293 cells stably expressing hGlyT1c were plated onto 96-well Cytostar plates at a density of 4.5×10^4 cells per well in 100 μL of growth media (DMEM containing 10% fetal bovine serum) and incubated overnight in a 37° C., 10% CO2 incubator. The following day, stock compounds in 10 mM DMSO were serially diluted in DMSO, and 2× compound solutions were prepared by diluting compound again (1:100) in HBSS. […] Plates were then read on a MicroBeta plate counter (Perkin Elmer). Dose-response data for tested compounds were analyzed and curves were fit using a four parameter logistic fit to determine IC50 values. […]

Consider `COc1cc(C2CN(C(=O)c3c(O[C@@H](C)C(F)(F)F)ccc(S(C)(=O)=O)c3OC)C2)ccc1C(F)(F)F` [Example 144, 1-(3-Methanesulfonyl-2-methoxy-6-{[(2S)-1,1,1-trifluoropropan-2-yl]oxy}benzoyl)-3-[3-methoxy-4-(trifluoromethyl)phenyl]azetidine], for which the IC50 was 1 to 10 µM.

`COc1ccc(C2CN(C(=O)c3c(OC(C)C(F)(F)F)ccc(C#N)c3OC)C2)cc1` (stereo not drawn) [Example 96, 2-Methoxy-3-{[3-(4-methoxyphenyl)azetidin-1-yl]carbonyl}-4-[(1,1,1-trifluoropropan-2-yl)oxy]benzonitrile]: the IC50 is < 0.1 µM.

With `COc1c(S(C)(=O)=O)ccc(O[C@@H](C)C(F)(F)F)c1C(=O)N1CC(c2ccc(C(F)(F)F)cc2C)C1` [Example 40, 1-(3-Methanesulfonyl-2-methoxy-6-{[(2S)-1,1,1-trifluoropropan-2-yl]oxy}benzoyl)-3-[2-methyl-4-(trifluoromethyl)phenyl]azetidine], the IC50 was 1 to 10 µM.

With `C[C@H](Oc1ccc(C#N)c(Cl)c1C(=O)N1CC(c2ccc(C#N)cc2)C1)C(F)(F)F` [Example 109, 2-Chloro-3-{[3-(4-cyanophenyl)azetidin-1-yl]carbonyl}-4-{[(2S)-1,1,1-trifluoropropan-2-yl]oxy}benzonitrile], the IC50 is 0.1 to 1 µM.

With `COc1cc(C2CN(C(=O)c3c(O[C@H](C)C(F)(F)F)ccc(C#N)c3OC)C2)ccc1C#N` [Example 177, 3-[3-(4-Cyano-3-methoxyphenyl)azetidine-1-carbonyl]-2-methoxy-4-{[(2R)-1,1,1-trifluoropropan-2-yl]oxy}benzonitrile], the IC50 was 0.1 to 1 µM.

For the molecule `COc1c(C#N)ccc(OC(C)C(F)(F)F)c1C(=O)N1CC(c2ccc(C(F)(F)F)nc2)C1` (stereo not drawn) [Example 113, 2-Methoxy-3-({3-[6-(trifluoromethyl)pyridin-3-yl]azetidin-1-yl}carbonyl)-4-[(1,1,1-trifluoropropan-2-yl)oxy]benzonitrile], the IC50 was < 0.1 µM.

Consider `COc1c(C#N)ccc(O[C@H](C)C(F)(F)F)c1C(=O)N1CC(c2ccc(C3CCOCC3)cc2)C1` [Example 161, 2-Methoxy-3-{3-[4-(oxan-4-yl)phenyl]azetidine-1-carbonyl}-4-{[(2R)-1,1,1-trifluoropropan-2-yl]oxy}benzonitrile], for which the IC50 was < 0.1 µM.

Regarding `COc1c(S(C)(=O)=O)ccc(O[C@H](C)C(F)(F)F)c1C(=O)N1CC(Cc2ccc(F)cc2)C1` [Example 39, 3-[(4-Fluorophenyl)methyl]-1-(3-methanesulfonyl-2-methoxy-6-{[(2R)-1,1,1-trifluoropropan-2-yl]oxy}benzoyl)azetidine], the IC50 was 0.1 to 1 µM.

For `COc1c(S(C)(=O)=O)ccc(OCC(F)(F)F)c1C(=O)N1CC(c2ccc(C(F)(F)F)cn2)C1` [Example 229, 2-{1-[3-Methanesulfonyl-2-methoxy-6-(2,2,2-trifluoroethoxy)benzoyl]azetidin-3-yl}-5-(trifluoromethyl)pyridine], the IC50 was 0.1 to 1 µM.

Consider `COc1c(S(C)(=O)=O)ccc(O[C@@H](C)C(F)(F)F)c1C(=O)N1CC(c2cccc(Cl)c2F)C1` [Example 252, 3-(3-Chloro-2-fluorophenyl)-1-(3-methanesulfonyl-2-methoxy-6-{[(2S)-1,1,1-trifluoropropan-2-yl]oxy}benzoyl)azetidine], for which the IC50 was < 0.1 µM.

On to `COc1c(C#N)ccc(C2(F)CCOCC2)c1C(=O)N1CC(c2ccc(C#N)cc2Cl)C1` [Example 132, 3-{[3-(2-Chloro-4-cyanophenyl)azetidin-1-yl]carbonyl}-4-(4-fluorooxan-4-yl)-2-methoxybenzonitrile], for which the IC50 was < 0.1 µM.

`COc1c(S(C)(=O)=O)ccc(O[C@@H](C)C(F)(F)F)c1C(=O)N1CC(Oc2ccccc2)C1` [Example 194, 1-(3-Methanesulfonyl-2-methoxy-6-{[(2S)-1,1,1-trifluoropropan-2-yl]oxy}benzoyl)-3-phenoxyazetidine]: the IC50 is < 0.1 µM.

For `COc1c(C#N)ccc(O[C@@H](C)C(F)(F)F)c1C(=O)N1CC(c2ccc(C#N)c(Cl)c2)C1` [Example 122, 3-{[3-(3-Chloro-4-cyanophenyl)azetidin-1-yl]carbonyl}-2-methoxy-4-{[(2S)-1,1,1-trifluoropropan-2-yl]oxy}benzonitrile], the IC50 was < 0.1 µM.

Take `COc1c(C#N)ccc(OCC(F)(F)F)c1C(=O)N1CC(c2ccc(C(F)(F)F)cn2)C1` [Example 125, 2-Methoxy-4-(2,2,2-trifluoroethoxy)-3-({3-[5-(trifluoromethyl)pyridin-2-yl]azetidin-1-yl}carbonyl)benzonitrile]: the IC50 is < 0.1 µM.

For the molecule `COc1ccc(OC2CN(C(=O)c3c(OC(C)C(F)(F)F)ccc(C#N)c3OC)C2)cc1` (stereo not drawn) [Example 94, 2-Methoxy-3-{[3-(4-methoxyphenoxy)azetidin-1-yl]carbonyl}-4-[(1,1,1-trifluoropropan-2-yl)oxy]benzonitrile], the IC50 was > 10 µM.

Take `COc1c(S(C)(=O)=O)ccc(O[C@@H](C)C(F)(F)F)c1C(=O)N1CC(c2ccccc2C(F)(F)F)C1` [Example 199, 1-(3-Methanesulfonyl-2-methoxy-6-{[(2S)-1,1,1-trifluoropropan-2-yl]oxy}benzoyl)-3-[2-(trifluoromethyl)phenyl]azetidine]: the IC50 is < 0.1 µM.

As to `COc1c(C#N)ccc(C2(F)CCOCC2)c1C(=O)N1CC(c2ccc(F)c(F)c2)C1` [Example 21, 3-{[3-(3,4-Difluorophenyl)azetidin-1-yl]carbonyl}-4-(4-fluorooxan-4-yl)-2-methoxybenzonitrile], the IC50 was 1 to 10 µM.

With `COc1c(S(C)(=O)=O)ccc(O[C@@H](C)C(F)(F)F)c1C(=O)N1CC(c2cc(F)cc(F)c2)C1` [Example 196, 3-(3,5-Difluorophenyl)-1-(3-methanesulfonyl-2-methoxy-6-{[(2S)-1,1,1-trifluoropropan-2-yl]oxy}benzoyl)azetidine], the IC50 is < 0.1 µM.

In the case of `COc1c(C#N)ccc(O[C@@H](C)C(F)(F)F)c1C(=O)N1CC(c2ccc(C(F)(F)F)cc2)C1` [Example 178, 2-Methoxy-3-({3-[4-(trifluoromethyl)phenyl]azetidin-1-yl}carbonyl)-4-{[(2S)-1,1,1-trifluoropropan-2-yl]oxy}benzonitrile], the IC50 is 0.1 to 1 µM.

For `COc1ccc(C2CN(C(=O)c3c(OC(C)C(F)(F)F)ccc(C#N)c3Cl)C2)cc1` (stereo not drawn) [Example 80, 2-Chloro-3-{[3-(4-methoxyphenyl)azetidin-1-yl]carbonyl}-4-[(1,1,1-trifluoropropan-2-yl)oxy]benzonitrile], the IC50 was 1 to 10 µM.

For the molecule `COc1c(C#N)ccc(OC(C)C(F)(F)F)c1C(=O)N1CC(c2ccc(F)cn2)C1` (stereo not drawn) [Example 65, 3-{[3-(5-Fluoropyridin-2-yl)azetidin-1-yl]carbonyl}-2-methoxy-4-[(1,1,1-trifluoropropan-2-yl)oxy]benzonitrile], the IC50 was < 0.1 µM.

For the molecule `COc1c(C#N)ccc(C2(F)CCOCC2)c1C(=O)N1CC(Oc2ccc(F)c(F)c2)C1` [Example 25, 3-{[3-(3,4-Difluorophenoxy)azetidin-1-yl]carbonyl}-4-(4-fluorooxan-4-yl)-2-methoxybenzonitrile], the IC50 is 0.1 to 1 µM.

For the molecule `COc1c(S(C)(=O)=O)ccc(O[C@@H](C)C(F)(F)F)c1C(=O)N1CC(Oc2ccc(F)cc2C)C1` [Example 58, 3-(4-Fluoro-2-methylphenoxy)-1-(3-methanesulfonyl-2-methoxy-6-{[(2S)-1,1,1-trifluoropropan-2-yl]oxy}benzoyl)azetidine], the IC50 is < 0.1 µM.

Turning to `COc1c(S(C)(=O)=O)ccc(O[C@H](C)C(F)(F)F)c1C(=O)N1CC(Cc2ccc(C(F)(F)F)cc2)C1` [Example 149, 1-(3-Methanesulfonyl-2-methoxy-6-{[(2R)-1,1,1-trifluoropropan-2-yl]oxy}benzoyl)-3-{[4-(trifluoromethyl)phenyl]methyl}azetidine], the IC50 is < 0.1 µM.

On to `C[C@H](Oc1ccc(C#N)c(Cl)c1C(=O)N1CC(c2ccccc2)C1)C(F)(F)F` [Example 54, 2-Chloro-3-(3-phenylazetidine-1-carbonyl)-4-{[(2S)-1,1,1-trifluoropropan-2-yl]oxy}benzonitrile], for which the IC50 is 0.1 to 1 µM.

For the molecule `COc1c(S(C)(=O)=O)ccc(O[C@@H](C)C(F)(F)F)c1C(=O)N1CC(Oc2cccc(Cl)c2)C1` [Example 200, 3-(3-Chlorophenoxy)-1-(3-methanesulfonyl-2-methoxy-6-{[(2S)-1,1,1-trifluoropropan-2-yl]oxy}benzoyl)azetidine], the IC50 was < 0.1 µM.

For the molecule `COc1c(C#N)ccc(O[C@H](C)C(F)(F)F)c1C(=O)N1CC(c2ccc(C(F)(F)F)cc2)C1` [Example 256, 2-Methoxy-3-({3-[4-(trifluoromethyl)phenyl]azetidin-1-yl}carbonyl)-4-{[(2R)-1,1,1-trifluoropropan-2-yl]oxy}benzonitrile], the IC50 was 1 to 10 µM.
